Experimental data from paper PMC5762315, “Inhibition of polo-like kinase 4 (PLK4): a new therapeutic option for rhabdoid tumors and pediatric medulloblastoma” (Oncotarget, 2017).
Several values for one entry are separate records, joined by “and”; a condition that tells them apart may be missing. Equal values may be shown once.

Tests used:
Assay in all cases: LanthaScreen Eu Kinase Binding Assay, panel of 486 biochemical kinase assays
various kinases [1] = target: various kinases (Homo sapiens, UniProt P45985); conditions: MAP2K4 (MEK4)
various kinases [2] = target: various kinases (Homo sapiens, UniProt Q09013); conditions: DMPK
various kinases [3] = target: various kinases (Homo sapiens, UniProt Q8WXR4); conditions: MYO3B (MYO3 beta)
various kinases [4] = target: various kinases (Homo sapiens, UniProt P27037); conditions: ACVR2A
various kinases [5] = target: various kinases (Homo sapiens, UniProt Q07912); conditions: kinase TNK2 (ACK); LanthaScreen Binding
Sequence of various kinases (Homo sapiens, UniProt Q07912) (Q07912 whole entry): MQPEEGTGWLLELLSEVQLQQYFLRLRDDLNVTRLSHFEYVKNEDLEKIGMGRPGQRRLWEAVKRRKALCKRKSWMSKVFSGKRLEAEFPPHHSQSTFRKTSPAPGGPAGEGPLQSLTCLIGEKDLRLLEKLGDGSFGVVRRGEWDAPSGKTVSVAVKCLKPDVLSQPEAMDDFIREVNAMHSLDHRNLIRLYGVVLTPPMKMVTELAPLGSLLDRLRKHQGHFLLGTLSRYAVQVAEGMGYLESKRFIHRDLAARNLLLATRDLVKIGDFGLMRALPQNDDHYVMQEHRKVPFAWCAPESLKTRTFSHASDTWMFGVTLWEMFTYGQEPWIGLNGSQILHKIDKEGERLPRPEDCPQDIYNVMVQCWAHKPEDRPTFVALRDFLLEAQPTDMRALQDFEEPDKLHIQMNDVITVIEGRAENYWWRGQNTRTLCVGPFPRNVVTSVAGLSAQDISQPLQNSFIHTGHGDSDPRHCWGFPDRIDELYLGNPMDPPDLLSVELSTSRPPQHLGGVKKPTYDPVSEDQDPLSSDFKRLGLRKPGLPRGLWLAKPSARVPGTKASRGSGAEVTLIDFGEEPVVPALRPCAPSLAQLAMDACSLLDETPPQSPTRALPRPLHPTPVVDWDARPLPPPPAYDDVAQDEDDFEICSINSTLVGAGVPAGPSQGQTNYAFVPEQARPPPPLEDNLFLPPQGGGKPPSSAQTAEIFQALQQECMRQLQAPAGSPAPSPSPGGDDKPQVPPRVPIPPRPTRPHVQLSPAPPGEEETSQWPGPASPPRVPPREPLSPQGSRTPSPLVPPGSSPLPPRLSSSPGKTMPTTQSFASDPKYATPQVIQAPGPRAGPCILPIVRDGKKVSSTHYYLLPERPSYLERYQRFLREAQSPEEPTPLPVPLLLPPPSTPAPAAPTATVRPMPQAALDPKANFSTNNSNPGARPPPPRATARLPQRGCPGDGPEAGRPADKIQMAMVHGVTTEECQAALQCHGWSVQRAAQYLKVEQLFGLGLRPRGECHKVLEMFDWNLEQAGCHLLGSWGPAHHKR

various kinases [6] = target: various kinases (Homo sapiens, UniProt P22612); conditions: kinase PRKACG (PRKAC gamma); LanthaScreen Binding
Sequence of various kinases (Homo sapiens, UniProt P22612) (P22612 whole entry): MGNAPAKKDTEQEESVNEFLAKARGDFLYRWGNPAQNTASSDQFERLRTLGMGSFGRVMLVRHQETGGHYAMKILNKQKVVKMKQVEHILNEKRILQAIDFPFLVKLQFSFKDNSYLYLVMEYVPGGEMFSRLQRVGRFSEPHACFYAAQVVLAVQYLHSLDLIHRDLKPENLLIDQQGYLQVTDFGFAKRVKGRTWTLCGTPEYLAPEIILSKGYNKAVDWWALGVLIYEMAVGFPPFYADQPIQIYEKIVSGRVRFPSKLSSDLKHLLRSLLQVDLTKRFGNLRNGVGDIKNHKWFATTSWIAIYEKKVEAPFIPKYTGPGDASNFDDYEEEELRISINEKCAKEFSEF

various kinases [7] = target: various kinases (Homo sapiens, UniProt Q16832, N456S); conditions: DDR2 N456S
various kinases [8] = target: various kinases (Homo sapiens, UniProt Q86UE8); conditions: kinase TLK2; LanthaScreen Binding
Sequence of various kinases (Homo sapiens, UniProt Q86UE8) (Q86UE8 whole entry): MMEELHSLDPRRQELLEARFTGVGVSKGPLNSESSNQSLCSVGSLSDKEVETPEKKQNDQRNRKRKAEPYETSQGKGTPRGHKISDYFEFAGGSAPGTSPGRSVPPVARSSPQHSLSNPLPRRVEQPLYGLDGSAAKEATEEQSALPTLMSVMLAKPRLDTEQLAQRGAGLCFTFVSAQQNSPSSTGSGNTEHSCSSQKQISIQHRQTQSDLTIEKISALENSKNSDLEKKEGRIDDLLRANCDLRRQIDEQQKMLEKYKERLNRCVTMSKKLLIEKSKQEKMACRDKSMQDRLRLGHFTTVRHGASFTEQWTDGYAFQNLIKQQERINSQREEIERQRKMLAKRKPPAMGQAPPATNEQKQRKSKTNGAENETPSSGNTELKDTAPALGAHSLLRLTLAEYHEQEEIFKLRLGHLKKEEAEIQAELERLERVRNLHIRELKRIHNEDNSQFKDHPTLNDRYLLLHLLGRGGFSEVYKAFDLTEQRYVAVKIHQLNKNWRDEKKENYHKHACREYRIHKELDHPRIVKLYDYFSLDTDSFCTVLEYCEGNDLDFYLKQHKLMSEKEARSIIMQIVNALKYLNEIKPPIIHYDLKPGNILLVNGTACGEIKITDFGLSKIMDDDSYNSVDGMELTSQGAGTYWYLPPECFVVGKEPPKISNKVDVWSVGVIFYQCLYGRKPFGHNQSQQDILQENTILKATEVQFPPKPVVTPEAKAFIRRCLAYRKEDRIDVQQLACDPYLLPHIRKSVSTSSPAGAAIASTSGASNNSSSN

various kinases [9] = target: various kinases (Homo sapiens, UniProt P30530, R499C); conditions: AXL R499C
various kinases [10] = target: various kinases (Homo sapiens, UniProt P10721, D816V); conditions: KIT D816V
various kinases [11] = target: various kinases (Homo sapiens, UniProt Q9Y616); conditions: IRAK3
various kinases [12] = target: various kinases (Homo sapiens, UniProt P22694); conditions: kinase PRKACB (PRKAC beta); LanthaScreen Binding
various kinases [13] = target: T1, various kinases (Homo sapiens, UniProt Q6PHR2); conditions: kinase ULK3; LanthaScreen Binding
T1 sequence (Q6PHR2 1-472): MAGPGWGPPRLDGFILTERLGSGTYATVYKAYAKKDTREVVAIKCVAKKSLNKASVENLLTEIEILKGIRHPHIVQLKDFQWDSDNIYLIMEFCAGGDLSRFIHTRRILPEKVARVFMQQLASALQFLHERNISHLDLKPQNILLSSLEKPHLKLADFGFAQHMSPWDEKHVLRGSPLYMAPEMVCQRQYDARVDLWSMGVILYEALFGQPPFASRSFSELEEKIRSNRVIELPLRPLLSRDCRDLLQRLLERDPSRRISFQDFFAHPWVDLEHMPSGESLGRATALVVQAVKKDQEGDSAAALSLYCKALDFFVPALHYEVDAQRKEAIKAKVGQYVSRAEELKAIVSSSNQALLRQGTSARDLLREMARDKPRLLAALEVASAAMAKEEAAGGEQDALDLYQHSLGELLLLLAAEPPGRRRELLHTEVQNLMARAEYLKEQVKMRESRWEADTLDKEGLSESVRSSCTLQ

various kinases [14] = target: various kinases (Homo sapiens, UniProt P04049, Y340D/Y341D); conditions: kinase RAF1 (cRAF) Y340D Y341D; LanthaScreen Binding
Sequence of various kinases (Homo sapiens, UniProt P04049, Y340D/Y341D) (P04049 whole entry Y340D/Y341D): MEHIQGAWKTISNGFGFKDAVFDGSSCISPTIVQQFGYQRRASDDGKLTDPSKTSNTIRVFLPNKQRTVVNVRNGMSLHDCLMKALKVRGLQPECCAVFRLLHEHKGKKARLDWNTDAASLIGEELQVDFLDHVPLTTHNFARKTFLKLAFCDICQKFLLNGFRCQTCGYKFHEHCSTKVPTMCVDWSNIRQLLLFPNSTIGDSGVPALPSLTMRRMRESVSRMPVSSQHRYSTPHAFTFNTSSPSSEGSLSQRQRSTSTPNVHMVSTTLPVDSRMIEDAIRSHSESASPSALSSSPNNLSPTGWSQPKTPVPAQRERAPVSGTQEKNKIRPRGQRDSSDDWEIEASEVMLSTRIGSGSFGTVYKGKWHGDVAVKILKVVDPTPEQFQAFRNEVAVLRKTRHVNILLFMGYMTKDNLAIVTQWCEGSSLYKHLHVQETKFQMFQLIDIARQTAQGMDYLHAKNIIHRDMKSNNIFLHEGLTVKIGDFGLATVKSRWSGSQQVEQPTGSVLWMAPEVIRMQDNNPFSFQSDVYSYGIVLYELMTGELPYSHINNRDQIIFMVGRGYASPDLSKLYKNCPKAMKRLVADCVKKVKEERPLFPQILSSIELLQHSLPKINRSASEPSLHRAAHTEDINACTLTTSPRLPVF

various kinases [15] = target: T2, various kinases (Homo sapiens, UniProt P36897); conditions: kinase TGFBR1 (ALK5); LanthaScreen Binding
T2 sequence (P36897 34-503): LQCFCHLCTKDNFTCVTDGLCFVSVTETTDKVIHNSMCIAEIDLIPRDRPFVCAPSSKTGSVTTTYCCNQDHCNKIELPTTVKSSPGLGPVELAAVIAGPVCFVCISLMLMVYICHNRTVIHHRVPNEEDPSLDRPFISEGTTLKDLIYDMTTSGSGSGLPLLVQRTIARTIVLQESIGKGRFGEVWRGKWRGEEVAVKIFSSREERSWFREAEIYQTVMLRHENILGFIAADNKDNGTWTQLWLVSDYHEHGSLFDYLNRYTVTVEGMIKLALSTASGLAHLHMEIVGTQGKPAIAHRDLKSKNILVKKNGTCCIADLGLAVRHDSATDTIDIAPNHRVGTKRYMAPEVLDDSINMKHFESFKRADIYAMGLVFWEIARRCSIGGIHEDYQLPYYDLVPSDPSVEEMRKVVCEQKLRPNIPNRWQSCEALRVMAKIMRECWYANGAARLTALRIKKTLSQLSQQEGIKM

various kinases [16] = target: various kinases (Homo sapiens, UniProt Q9NRM7); conditions: LATS2
various kinases [17] = target: various kinases (Homo sapiens, UniProt Q9NY57); conditions: kinase STK32B (YANK2); LanthaScreen Binding
various kinases [18] = target: various kinases (Homo sapiens, UniProt O00238); conditions: BMPR1B (ALK6)
various kinases [19] = target: various kinases (Homo sapiens, UniProt P57059); conditions: kinase SIK1; LanthaScreen Binding
Sequence of various kinases (Homo sapiens, UniProt P57059) (P57059 whole entry): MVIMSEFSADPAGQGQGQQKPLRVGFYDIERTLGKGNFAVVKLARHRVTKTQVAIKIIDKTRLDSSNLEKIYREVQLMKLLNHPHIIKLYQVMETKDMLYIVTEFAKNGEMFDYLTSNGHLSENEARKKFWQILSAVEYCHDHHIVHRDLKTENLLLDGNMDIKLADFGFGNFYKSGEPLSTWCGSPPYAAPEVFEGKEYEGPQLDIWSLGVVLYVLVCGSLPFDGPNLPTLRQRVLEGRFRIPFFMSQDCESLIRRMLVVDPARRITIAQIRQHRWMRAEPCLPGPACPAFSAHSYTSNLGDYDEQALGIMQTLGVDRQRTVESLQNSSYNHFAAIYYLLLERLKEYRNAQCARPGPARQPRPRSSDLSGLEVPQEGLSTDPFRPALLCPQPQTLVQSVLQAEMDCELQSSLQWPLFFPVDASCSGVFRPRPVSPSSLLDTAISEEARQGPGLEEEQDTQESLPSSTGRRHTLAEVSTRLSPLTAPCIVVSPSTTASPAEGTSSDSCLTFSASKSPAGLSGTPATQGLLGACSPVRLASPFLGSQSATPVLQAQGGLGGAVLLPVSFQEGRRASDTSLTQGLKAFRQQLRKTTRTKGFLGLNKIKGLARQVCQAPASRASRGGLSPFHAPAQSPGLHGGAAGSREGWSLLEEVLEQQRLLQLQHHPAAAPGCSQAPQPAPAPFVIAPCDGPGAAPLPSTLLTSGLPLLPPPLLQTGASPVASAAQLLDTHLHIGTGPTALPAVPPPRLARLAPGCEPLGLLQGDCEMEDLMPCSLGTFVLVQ

various kinases [20] = target: various kinases (Homo sapiens, UniProt P29320); conditions: EPHA3
various kinases [21] = target: various kinases (Homo sapiens, UniProt Q13131)
Sequence of various kinases (Homo sapiens, UniProt Q13131) (Q13131 whole entry): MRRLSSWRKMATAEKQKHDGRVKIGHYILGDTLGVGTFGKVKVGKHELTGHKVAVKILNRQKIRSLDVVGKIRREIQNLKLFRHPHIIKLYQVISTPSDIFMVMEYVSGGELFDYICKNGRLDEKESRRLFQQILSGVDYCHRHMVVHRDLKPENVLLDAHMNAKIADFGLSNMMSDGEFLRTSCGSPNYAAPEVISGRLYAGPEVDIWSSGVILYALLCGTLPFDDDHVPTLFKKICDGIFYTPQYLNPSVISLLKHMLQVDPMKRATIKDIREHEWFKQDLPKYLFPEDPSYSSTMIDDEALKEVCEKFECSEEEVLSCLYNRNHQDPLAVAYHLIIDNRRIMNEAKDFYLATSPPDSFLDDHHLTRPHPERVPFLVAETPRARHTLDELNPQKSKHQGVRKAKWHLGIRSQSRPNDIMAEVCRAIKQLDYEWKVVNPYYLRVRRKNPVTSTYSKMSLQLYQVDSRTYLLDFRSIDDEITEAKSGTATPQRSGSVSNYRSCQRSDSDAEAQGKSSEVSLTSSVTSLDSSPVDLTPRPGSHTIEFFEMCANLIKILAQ

various kinases [22] = target: various kinases (Homo sapiens, UniProt Q04771, R206H); conditions: ACVR1 (ALK2) R206H
various kinases [23] = target: various kinases (Homo sapiens, UniProt P19525); conditions: EIF2AK2 (PKR)
various kinases [24] = target: various kinases (Homo sapiens, UniProt Q9NYL2); conditions: kinase ZAK; LanthaScreen Binding
Sequence of various kinases (Homo sapiens, UniProt Q9NYL2) (Q9NYL2 whole entry): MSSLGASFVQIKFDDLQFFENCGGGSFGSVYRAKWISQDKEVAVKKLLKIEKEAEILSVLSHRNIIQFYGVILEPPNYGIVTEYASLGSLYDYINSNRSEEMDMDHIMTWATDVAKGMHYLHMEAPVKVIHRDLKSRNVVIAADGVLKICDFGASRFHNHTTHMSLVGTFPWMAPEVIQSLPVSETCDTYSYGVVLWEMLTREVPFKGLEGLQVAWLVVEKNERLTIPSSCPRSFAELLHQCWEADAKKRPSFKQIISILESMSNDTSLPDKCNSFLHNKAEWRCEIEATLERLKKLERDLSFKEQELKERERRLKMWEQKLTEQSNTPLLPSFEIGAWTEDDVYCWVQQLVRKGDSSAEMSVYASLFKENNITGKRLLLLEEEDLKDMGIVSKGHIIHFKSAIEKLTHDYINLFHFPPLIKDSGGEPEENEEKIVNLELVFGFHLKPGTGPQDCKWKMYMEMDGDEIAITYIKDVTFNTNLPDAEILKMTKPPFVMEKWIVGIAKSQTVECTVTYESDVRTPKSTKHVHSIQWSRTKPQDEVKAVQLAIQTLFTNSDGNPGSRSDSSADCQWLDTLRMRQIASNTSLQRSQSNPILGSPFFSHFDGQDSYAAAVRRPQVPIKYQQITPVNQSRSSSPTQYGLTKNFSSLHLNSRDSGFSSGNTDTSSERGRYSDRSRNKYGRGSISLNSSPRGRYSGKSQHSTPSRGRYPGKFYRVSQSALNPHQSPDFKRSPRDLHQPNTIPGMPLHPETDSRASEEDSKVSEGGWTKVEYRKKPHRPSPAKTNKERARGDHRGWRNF

## COc1ccc2c(c1)[C@]1(C[C@H]1c1ccc3c(/C=C/c4ccc(CN5C[C@@H](C)O[C@@H](C)C5)cc4)n[nH]c3c1)C(=O)N2 [CFI-400945]
Various kinases [1]
  % Inhibition: 7% and 3%
Various kinases [2]
  % Inhibition: 1% and -3%
Various kinases [3]
  % Inhibition: 7% and 6%
Various kinases [4]
  % Inhibition: 18% and 15%
Various kinases [5]
  % Inhibition Average: 9%
  % Inhibition Duplicate #1: 11%
  % Inhibition Duplicate #2: 8%
Various kinases [6]
  % Inhibition Average: 18%
  % Inhibition Duplicate #1: 25%
  % Inhibition Duplicate #2: 11%
Various kinases [7]
  % Inhibition: 77% and 74%
Various kinases [8]
  % Inhibition Average: 9%
  % Inhibition Duplicate #1: 14%
  % Inhibition Duplicate #2: 5%
Various kinases [9]
  % Inhibition: 11% and 12%
Various kinases [10]
  % Inhibition: -1% and 0%
Various kinases [11]
  % Inhibition: 29%
Various kinases [12]
  % Inhibition Average: -4%
  % Inhibition Duplicate #1: -6%
  % Inhibition Duplicate #2: -3%
Various kinases [13]
  % Inhibition Average: 0%
  % Inhibition Duplicate #1: -4%
  % Inhibition Duplicate #2: 3%
Various kinases [14]
  % Inhibition Average: -3%
  % Inhibition Duplicate #1: -6%
  % Inhibition Duplicate #2: -1%
Various kinases [15]
  % Inhibition Average: 3%
  % Inhibition Duplicate #1: 4%
  % Inhibition Duplicate #2: 3%
Various kinases [16]
  % Inhibition: 16% and 14%
Various kinases [17]
  % Inhibition Average: 4%
  % Inhibition Duplicate #1: -1%
  % Inhibition Duplicate #2: 9%
Various kinases [18]
  % Inhibition: 5% and 8%
Various kinases [19]
  % Inhibition Average: 6%
  % Inhibition Duplicate #1: 5%
  % Inhibition Duplicate #2: 6%
Various kinases [20]
  % Inhibition: -2% and -1%
Various kinases [21]; AMPK (A1/B1/G2)
  % Inhibition: 13% and 9%
Various kinases [21]; AMPK (A1/B1/G3)
  % Inhibition: 10% and 15%
Various kinases [21]; AMPK (A1/B2/G1)
  % Inhibition: 14% and 13%
Various kinases [22]
  % Inhibition: 9% and 13%
Various kinases [23]
  % Inhibition: 3% and -4%
Various kinases [24]
  % Inhibition Average: -1%
  % Inhibition Duplicate #1: -1%
  % Inhibition Duplicate #2: -1%
